Patent US10526327B2, “Histone demethylase inhibitors” (CELGENE QUANTICEL RESEARCH, INC., priority 2013, dated 2020)
pIC50: −log10 of the molar value.

How the values were obtained:
Jarid1B = molecular target: T1, Jarid1B (Homo sapiens, UniProt Q9UGL1); experiment: Jarid1B in vitro enzyme inhibition assay (TR-FRET); type: biochemical
T1 construct: purchased BPS Bioscience or custom made by MolecularThroughput 50121
T1 sequence (Q9UGL1 2-751): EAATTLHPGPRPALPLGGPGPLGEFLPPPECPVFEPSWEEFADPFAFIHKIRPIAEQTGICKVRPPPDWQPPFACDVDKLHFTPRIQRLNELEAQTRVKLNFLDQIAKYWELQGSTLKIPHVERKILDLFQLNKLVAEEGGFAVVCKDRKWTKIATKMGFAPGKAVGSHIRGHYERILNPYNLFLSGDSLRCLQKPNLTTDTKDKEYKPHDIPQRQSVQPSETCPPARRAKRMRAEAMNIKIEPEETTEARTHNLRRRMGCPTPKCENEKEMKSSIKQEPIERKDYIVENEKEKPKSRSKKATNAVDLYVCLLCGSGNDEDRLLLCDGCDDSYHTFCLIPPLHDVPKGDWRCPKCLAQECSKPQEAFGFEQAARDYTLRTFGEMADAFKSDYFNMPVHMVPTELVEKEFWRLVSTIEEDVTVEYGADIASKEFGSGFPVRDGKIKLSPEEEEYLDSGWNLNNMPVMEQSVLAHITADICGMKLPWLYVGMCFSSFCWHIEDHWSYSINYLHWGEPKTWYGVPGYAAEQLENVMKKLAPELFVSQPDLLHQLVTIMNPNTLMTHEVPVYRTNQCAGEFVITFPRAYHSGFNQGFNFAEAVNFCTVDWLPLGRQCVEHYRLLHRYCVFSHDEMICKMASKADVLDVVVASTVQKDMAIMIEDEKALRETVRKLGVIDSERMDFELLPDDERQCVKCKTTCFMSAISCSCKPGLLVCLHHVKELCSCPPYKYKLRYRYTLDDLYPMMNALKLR
Outline: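 Jarid1B (AA 2-751, baculovirus-expressed) at 0.8 nM with 300 nM biotin-H3K4me3 peptide and 2 μM α-ketoglutarate in HEPES pH 7.3 with ascorbate and Fe(II), 30 min at room temperature. Stopped with EDTA; H3K4me1-2 product detected by TR-FRET (665/615 ratio) and IC50 fitted from 11-point dilutions.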

JMJD2C = molecular target: T2, JMJD2C (Homo sapiens, UniProt Q9H3R0); experiment: JMJD2C in vitro enzyme inhibition assay (TR-FRET); type: biochemical
T2 construct: purchased BPS Bioscience 50105
T2 sequence (Q9H3R0 2-372): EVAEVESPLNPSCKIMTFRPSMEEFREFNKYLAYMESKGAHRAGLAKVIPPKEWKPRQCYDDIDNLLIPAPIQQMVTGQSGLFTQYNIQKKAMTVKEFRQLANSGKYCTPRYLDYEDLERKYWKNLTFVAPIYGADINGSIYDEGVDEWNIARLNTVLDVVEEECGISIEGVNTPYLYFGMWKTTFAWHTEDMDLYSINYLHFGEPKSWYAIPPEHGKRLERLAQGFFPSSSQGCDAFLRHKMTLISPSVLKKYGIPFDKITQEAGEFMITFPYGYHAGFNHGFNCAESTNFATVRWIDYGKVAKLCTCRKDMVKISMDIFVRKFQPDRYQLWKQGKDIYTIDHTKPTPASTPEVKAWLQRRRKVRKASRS
Outline: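 Baculovirus-expressed human JMJD2C (AA 2-372) at 0.3 nM demethylated 300 nM biotin-H3K9me3 peptide with 2 μM alpha-ketoglutarate in HEPES pH 7.3 containing ascorbate and Fe(II), 30 min at room temperature. EDTA-stopped product was read by TR-FRET with Eu-anti-H3K9me2 and streptavidin-APC; 665/615 ratios from 11-point dilutions gave IC50.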

SMILES | pIC50 (Jarid1B) | pIC50 (JMJD2C)
Oc1nc(OCc2ccc(C(F)(F)F)cc2)nc2cnccc12 [Example 170, 2-{[4-(trifluoromethyl)phenyl]methoxy}pyrido[3,4-d]pyrimidin-4-ol] | 5.00 to 6.00 | 5.00 to 6.00
Oc1nc(OCc2ccccc2Cl)nc2cnccc12 [Example 171, 2-[(2-chlorophenyl)methoxy]pyrido[3,4-d]pyrimidin-4-ol] | 6.00 to 7.00 | ≥ 7.00
Oc1nc(OCc2c(Cl)cccc2Cl)nc2cnccc12 [Example 172, 2-[(2,6-dichlorophenyl)methoxy]pyrido[3,4-d]pyrimidin-4-ol] | 5.00 to 6.00 | 5.00 to 6.00
Oc1nc(OCc2cccc(Cl)c2Cl)nc2cnccc12 [Example 173, 2-[(2,3-dichlorophenyl)methoxy]pyrido[3,4-d]pyrimidin-4-ol] | 5.00 to 6.00 | ≥ 7.00
Oc1nc(OCCc2ccc(Cl)cc2)nc2cnccc12 [Example 174, 2-[2-(4-chlorophenyl)ethoxy]pyrido[3,4-d]pyrimidin-4-ol] | ≥ 7.00 | 6.00 to 7.00
Oc1nc(OCCc2ccc(Cl)c(Cl)c2)nc2cnccc12 [Example 175, 2-[2-(3,4-dichlorophenyl)ethoxy]pyrido[3,4-d]pyrimidin-4-ol] | 5.00 to 6.00 | ≥ 7.00
Oc1nc(OC(c2ccccc2)C(F)(F)F)nc2cnccc12 (centres unmarked) [Example 176, 2-(2,2,2-trifluoro-1-phenylethoxy)pyrido[3,4-d]pyrimidin-4-ol] | 6.00 to 7.00 | ≥ 7.00
